# Laboratory results published in article PMC9329436, “Optimization of the 4-anilinoquin(az)oline scaffold as epidermal growth factor receptor (EGFR) inhibitors for chordoma utilizing a toxicology profiling assay platform” (Scientific Reports, 2022).
# Like-named read-outs stand apart in the source and are kept apart here.
# Legend:
# Assay type in all cases: biochemical
# [1] = target: 320 wild-type protein kinases (Homo sapiens, UniProt P49759); details: singlicate
# From the text: (§1) Table S4. Profiling of two compounds at two concentrations against 320 wild-type protein kinases; singlicate measurement; Residual activities (% of control).
# [2] = target: 320 wild-type protein kinases (Homo sapiens, UniProt Q16539); details: p38-alpha, singlicate
# Sequence of 320 wild-type protein kinases (Homo sapiens, UniProt Q16539) (Q16539 whole entry): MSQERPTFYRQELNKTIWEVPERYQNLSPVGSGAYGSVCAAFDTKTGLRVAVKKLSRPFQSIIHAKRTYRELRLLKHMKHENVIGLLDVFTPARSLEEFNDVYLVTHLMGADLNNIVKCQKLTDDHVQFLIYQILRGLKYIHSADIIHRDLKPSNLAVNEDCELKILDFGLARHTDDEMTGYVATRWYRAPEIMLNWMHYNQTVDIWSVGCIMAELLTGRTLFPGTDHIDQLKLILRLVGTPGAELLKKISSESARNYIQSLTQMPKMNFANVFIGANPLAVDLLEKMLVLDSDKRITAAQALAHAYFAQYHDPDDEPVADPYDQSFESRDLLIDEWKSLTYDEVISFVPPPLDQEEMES
# From the text: as §1
# [3] = target: T1, 320 wild-type protein kinases (Homo sapiens, UniProt Q96BR1); details: kinase SGK3, singlicate
# T1 sequence (Q96BR1 1-496): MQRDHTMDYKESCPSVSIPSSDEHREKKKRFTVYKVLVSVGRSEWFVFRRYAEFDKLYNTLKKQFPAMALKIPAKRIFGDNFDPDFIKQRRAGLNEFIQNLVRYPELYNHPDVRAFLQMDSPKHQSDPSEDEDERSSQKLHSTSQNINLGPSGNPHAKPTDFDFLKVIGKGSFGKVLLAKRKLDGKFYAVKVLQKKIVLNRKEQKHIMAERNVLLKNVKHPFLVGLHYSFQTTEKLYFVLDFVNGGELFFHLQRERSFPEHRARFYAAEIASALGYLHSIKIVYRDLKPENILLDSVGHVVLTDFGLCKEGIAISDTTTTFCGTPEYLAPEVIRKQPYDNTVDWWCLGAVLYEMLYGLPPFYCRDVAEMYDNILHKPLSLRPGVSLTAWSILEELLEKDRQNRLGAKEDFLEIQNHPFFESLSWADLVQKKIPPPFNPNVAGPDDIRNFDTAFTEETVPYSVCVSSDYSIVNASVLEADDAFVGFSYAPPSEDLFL
# From the text: as §1
# [4] = target: T2, 320 wild-type protein kinases (Homo sapiens, UniProt Q9UBE8); details: NLK, singlicate
# T2 sequence (Q9UBE8 1-527): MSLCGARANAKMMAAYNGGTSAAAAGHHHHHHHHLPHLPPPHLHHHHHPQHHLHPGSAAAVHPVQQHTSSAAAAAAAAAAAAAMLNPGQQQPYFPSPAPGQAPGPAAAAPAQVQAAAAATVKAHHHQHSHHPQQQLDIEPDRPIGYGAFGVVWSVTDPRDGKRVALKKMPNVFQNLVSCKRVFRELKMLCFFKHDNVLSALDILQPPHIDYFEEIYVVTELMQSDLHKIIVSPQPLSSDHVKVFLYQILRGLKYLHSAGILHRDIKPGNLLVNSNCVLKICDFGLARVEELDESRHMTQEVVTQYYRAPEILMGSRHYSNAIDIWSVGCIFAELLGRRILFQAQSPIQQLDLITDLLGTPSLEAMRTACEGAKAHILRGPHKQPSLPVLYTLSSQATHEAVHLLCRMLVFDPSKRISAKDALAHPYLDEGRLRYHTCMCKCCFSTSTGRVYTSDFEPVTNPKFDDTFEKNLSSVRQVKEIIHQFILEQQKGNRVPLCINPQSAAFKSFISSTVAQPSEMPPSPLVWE
# From the text: as §1
# [5] = target: 320 wild-type protein kinases (Homo sapiens, UniProt P45984); details: singlicate
# Sequence of 320 wild-type protein kinases (Homo sapiens, UniProt P45984) (P45984 whole entry): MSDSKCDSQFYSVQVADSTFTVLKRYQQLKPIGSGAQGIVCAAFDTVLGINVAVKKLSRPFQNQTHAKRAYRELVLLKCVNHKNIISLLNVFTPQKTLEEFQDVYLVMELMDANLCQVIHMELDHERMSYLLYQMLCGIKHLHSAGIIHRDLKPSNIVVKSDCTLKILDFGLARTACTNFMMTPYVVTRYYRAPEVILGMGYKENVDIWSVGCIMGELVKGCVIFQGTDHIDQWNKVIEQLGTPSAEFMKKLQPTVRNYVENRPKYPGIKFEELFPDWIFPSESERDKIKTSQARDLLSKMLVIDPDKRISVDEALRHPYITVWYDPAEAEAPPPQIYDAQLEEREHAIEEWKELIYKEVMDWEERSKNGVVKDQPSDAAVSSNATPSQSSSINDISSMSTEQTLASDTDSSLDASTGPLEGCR
# From the text: as §1
# [6] = target: 320 wild-type protein kinases (Homo sapiens, UniProt Q16288); details: kinase TRK-C, singlicate
# Sequence of 320 wild-type protein kinases (Homo sapiens, UniProt Q16288) (Q16288 32-839): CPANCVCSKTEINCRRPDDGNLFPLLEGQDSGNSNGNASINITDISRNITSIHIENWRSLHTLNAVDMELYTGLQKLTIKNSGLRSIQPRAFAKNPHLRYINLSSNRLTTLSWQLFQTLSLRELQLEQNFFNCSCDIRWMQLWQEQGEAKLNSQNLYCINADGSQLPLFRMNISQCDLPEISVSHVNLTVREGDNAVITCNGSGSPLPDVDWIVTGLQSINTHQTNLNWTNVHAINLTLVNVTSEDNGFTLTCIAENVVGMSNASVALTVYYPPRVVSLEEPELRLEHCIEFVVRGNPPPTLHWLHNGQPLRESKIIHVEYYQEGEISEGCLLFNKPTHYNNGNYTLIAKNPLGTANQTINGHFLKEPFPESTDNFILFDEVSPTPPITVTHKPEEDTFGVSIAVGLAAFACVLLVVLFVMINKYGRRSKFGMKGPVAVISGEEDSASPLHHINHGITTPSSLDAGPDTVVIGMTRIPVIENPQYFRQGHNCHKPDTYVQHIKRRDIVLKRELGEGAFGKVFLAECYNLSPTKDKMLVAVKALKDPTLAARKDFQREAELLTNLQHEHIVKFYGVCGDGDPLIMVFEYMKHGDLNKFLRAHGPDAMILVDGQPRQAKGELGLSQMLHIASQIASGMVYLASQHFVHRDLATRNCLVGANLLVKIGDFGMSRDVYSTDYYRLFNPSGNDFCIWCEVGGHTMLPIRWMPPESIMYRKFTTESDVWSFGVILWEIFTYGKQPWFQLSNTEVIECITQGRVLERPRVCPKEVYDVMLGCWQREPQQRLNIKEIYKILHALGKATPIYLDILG
# From the text: as §1
# [7] = target: 320 wild-type protein kinases (Homo sapiens, UniProt P49841); details: GSK3-beta, singlicate
# Sequence of 320 wild-type protein kinases (Homo sapiens, UniProt P49841) (P49841 whole entry): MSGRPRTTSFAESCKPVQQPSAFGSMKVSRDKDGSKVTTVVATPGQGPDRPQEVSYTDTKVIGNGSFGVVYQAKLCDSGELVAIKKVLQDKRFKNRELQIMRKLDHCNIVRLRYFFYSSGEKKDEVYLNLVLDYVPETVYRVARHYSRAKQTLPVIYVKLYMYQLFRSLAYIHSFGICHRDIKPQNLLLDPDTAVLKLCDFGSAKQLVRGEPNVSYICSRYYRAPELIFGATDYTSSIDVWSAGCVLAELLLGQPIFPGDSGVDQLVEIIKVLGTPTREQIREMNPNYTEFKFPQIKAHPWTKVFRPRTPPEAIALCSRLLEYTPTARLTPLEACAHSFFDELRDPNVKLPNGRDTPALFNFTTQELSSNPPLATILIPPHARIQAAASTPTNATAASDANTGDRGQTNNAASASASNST
# From the text: as §1
# [8] = target: 320 wild-type protein kinases (Homo sapiens, UniProt Q16512); details: singlicate
# Sequence of 320 wild-type protein kinases (Homo sapiens, UniProt Q16512) (Q16512 whole entry): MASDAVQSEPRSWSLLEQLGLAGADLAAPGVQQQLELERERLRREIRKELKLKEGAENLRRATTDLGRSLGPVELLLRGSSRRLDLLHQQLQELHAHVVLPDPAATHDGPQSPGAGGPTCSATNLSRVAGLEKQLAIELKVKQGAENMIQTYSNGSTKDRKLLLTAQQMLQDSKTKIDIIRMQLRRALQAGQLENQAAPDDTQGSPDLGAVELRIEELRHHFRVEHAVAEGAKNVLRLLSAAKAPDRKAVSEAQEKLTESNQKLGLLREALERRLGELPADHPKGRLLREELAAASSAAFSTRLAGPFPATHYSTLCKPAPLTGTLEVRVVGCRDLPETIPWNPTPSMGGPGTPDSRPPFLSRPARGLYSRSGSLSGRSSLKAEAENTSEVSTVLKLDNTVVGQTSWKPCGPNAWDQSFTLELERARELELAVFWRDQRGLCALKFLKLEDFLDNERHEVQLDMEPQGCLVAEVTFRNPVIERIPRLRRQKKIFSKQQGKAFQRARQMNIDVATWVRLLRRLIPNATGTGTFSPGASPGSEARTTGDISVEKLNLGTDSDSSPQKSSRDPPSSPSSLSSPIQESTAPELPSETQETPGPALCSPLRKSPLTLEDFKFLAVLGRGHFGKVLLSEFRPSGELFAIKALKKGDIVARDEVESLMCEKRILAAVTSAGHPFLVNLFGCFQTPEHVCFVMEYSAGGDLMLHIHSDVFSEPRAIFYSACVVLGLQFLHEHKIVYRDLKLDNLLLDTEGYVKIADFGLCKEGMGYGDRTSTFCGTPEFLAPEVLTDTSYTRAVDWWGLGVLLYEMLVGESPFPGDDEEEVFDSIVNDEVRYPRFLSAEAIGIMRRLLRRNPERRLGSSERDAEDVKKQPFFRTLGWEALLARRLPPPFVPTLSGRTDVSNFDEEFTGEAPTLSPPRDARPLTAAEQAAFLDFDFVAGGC
# From the text: as §1
# [9] = target: 320 wild-type protein kinases (Homo sapiens, UniProt Q13131); details: singlicate
# Sequence of 320 wild-type protein kinases (Homo sapiens, UniProt Q13131) (Q13131 whole entry): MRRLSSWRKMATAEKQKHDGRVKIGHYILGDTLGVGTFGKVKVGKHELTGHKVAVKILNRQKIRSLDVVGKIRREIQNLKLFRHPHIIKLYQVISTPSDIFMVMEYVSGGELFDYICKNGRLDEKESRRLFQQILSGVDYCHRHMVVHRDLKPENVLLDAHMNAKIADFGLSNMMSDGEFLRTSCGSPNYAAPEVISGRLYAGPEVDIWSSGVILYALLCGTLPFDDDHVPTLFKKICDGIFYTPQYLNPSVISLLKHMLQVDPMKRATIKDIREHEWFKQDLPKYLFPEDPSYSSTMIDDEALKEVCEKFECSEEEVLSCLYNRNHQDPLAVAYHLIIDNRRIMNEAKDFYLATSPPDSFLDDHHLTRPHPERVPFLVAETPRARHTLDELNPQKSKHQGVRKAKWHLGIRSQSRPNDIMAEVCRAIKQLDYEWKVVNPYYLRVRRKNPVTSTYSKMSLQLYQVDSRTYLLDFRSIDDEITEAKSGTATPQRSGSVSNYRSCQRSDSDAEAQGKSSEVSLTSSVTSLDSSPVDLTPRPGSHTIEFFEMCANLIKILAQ
# From the text: as §1
# [10] = target: T3, 320 wild-type protein kinases (Homo sapiens, UniProt Q6XUX3); details: kinase RIPK5, singlicate
# T3 sequence (Q6XUX3 1-929): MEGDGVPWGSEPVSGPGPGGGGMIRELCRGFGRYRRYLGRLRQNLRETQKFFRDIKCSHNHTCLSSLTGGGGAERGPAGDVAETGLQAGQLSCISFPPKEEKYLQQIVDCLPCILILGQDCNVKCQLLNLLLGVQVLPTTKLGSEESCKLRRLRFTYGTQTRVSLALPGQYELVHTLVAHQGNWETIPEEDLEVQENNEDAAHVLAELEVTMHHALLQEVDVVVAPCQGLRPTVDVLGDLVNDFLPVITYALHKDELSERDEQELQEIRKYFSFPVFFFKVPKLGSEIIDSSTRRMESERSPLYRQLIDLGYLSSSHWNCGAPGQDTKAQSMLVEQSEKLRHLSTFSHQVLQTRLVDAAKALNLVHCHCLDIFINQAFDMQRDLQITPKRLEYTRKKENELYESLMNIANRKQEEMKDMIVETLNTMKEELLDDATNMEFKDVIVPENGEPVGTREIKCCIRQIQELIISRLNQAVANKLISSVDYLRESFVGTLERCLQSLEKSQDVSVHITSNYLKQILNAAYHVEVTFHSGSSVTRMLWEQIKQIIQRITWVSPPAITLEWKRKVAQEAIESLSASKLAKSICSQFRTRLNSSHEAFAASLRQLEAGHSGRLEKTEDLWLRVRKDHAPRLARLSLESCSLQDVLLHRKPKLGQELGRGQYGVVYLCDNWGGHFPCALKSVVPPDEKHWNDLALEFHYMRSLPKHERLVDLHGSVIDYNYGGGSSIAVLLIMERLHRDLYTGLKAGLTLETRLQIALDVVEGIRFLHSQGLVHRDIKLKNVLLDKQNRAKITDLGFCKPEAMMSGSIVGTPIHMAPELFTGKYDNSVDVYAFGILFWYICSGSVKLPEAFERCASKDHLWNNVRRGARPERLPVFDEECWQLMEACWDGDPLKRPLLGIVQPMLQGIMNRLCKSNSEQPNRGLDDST
# From the text: as §1
# Sequence of 320 wild-type protein kinases (Homo sapiens, UniProt P49759) (P49759 whole entry): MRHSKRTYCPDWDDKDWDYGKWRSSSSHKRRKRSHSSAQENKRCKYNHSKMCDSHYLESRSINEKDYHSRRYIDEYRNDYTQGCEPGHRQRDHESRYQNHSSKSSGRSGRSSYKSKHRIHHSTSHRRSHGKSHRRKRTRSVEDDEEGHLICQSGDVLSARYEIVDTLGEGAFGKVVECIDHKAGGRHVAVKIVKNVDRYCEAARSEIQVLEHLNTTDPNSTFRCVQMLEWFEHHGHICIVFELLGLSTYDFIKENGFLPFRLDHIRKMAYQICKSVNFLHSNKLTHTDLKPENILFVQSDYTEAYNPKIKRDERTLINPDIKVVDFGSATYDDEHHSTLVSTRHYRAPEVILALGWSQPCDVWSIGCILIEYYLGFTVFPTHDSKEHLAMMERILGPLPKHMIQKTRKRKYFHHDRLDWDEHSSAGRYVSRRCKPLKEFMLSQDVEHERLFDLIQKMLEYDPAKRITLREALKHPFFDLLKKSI
SMILES,"Residual activity ([1]; CLK1, 1.0E-06 M)","Residual activity ([1]; CLK1, 1.0E-07 M)",Residual activity ([2]; 1.0E-06 M),Residual activity ([2]; 1.0E-07 M),"Residual activity, SGK3 ([3]; assay conc. 1.0E-06 M)","Residual activity, SGK3 ([3]; assay conc. 1.0E-07 M)",Residual activity ([4]; 1.0E-06 M),Residual activity ([4]; 1.0E-07 M),"Residual activity ([5]; JNK2, 1.0E-06 M)","Residual activity ([5]; JNK2, 1.0E-07 M)","Residual activity, TRK-C ([6]; assay conc. 1.0E-06 M)","Residual activity, TRK-C ([6]; assay conc. 1.0E-07 M)",Residual activity ([7]; 1.0E-06 M),Residual activity ([7]; 1.0E-07 M),"Residual activity ([8]; PRK1, 1.0E-06 M)","Residual activity ([8]; PRK1, 1.0E-07 M)","Residual activity ([9]; AMPK-alpha1 aa1-550, 1.0E-06 M)","Residual activity ([9]; AMPK-alpha1 aa1-550, 1.0E-07 M)","Residual activity, RIPK5 ([10]; assay conc. 1.0E-06 M)","Residual activity, RIPK5 ([10]; assay conc. 1.0E-07 M)"
C#Cc1cc(Nc2ncnc3cc(I)ccc23)ccc1Cl [Compound 41],89 % of control,89 % of control,71 % of control,103 % of control,86 % of control,91 % of control,63 % of control,76 % of control,116 % of control,110 % of control,105 % of control,115 % of control,84 % of control,96 % of control,96 % of control,96 % of control,107 % of control,106 % of control,85 % of control,96 % of control
C#Cc1cc(Nc2ncnc3cc(OC)c(OC)cc23)ccc1Cl [Compound 45],79 % of control,102 % of control,56 % of control,96 % of control,89 % of control,93 % of control,31 % of control,83 % of control,120 % of control,115 % of control,113 % of control,136 % of control,85 % of control,84 % of control,91 % of control,91 % of control,98 % of control,91 % of control,71 % of control,84 % of control
